Source: publication PMC5923120, “Acylhydrazones as Antifungal Agents Targeting the Synthesis of Fungal Sphingolipids” (Antimicrobial Agents and Chemotherapy, 2018)
Converted amounts (≈) assume the structure as drawn. Where two headings read alike, the source gives them in different places.

Assays:
J774 = assay: In vitro toxicity (MTT), J774; assay type: cell-based, murine; settings: Mus musculus, cytotoxicity
Experimental: (§1) The murine macrophage cell line J774 and human cancer cell lines A549 and HepG2 were maintained in DMEM containing 10% fetal bovine serum (FBS) and 1% penicillin-streptomycin. At passage 7, 10^5 cells/well in DMEM containing 10% FBS were transferred into 96-well plates and cultured for 14 h for the cells to adhere to the wells. The compounds were added to the cells at concentrations ranging from 0.03 to 128 μg/ml. The wells without the compound served as controls. […] After 24 or 48 h, the supernatant was removed and 50 μl of 5-mg/ml 3-(4,5-dimethylthiazol-2-yl)-2,5-diphenyltetrazoliumbromide (MTT) solution in phosphate-buffered saline (PBS) was added to each well. The plates were incubated for an additional 4 h. The formazan crystal formed inside the cell was dissolved by adding 50 μl of dimethyl sulfoxide (DMSO). The optical density was measured at 570 nm.

A549 = assay: In vitro toxicity (MTT), A549; assay type: cell-based; settings: Homo sapiens, cytotoxicity
Experimental: as §1

HepG2 = assay: In vitro toxicity (MTT), HepG2; assay type: cell-based; settings: Homo sapiens, cytotoxicity
Experimental: as §1

Candida albicans A39 = assay: Synergistic assay (FIC), CA; assay type: cell-based
Experimental: (§2) Synergistic activity was assayed by calculating the fractional inhibitory index (FIC). Briefly, in a 96-well plate, drug A (D13) was serially diluted from 16 to 0.015 μg/ml (11 dilutions), whereas drug B (either fluconazole, amphotericin B, caspofungin, itraconazole, or voriconazole) was serially diluted from 12 to 0.19 μg/ml for fluconazole, 5 to 0.078 μg/ml for amphotericin B, or 8 to 0.007 μg/ml for caspofungin, itraconazole, or voriconazole (seven dilutions). The FIC was defined as (MIC combined/MIC drug A alone) + (MIC combined/MIC drug B alone). Synergism was categorized with the following scale: strongly synergistic effect, FIC of <0.5; synergistic effect, FIC of <1; additive effect, FIC of 1; no effect, FIC between 1 and 2; antagonistic effect, FIC of >2.

Candida albicans 3022 = assay: Synergistic assay (FIC), CA Flu-R; assay type: cell-based
Experimental: as §2

Candida krusei = assay: Synergistic assay (FIC), CK Flu R1; assay type: cell-based; settings: Pichia kudriavzevii
Experimental: as §2

Candida krusei ATCC 6258 = assay: Synergistic assay (FIC), CK Flu R2; assay type: cell-based; settings: Pichia kudriavzevii, ATCC6258
Experimental: as §2

[1] = tested on: Cryptococcus neoformans H99; assay: Synergistic assay (FIC), CN; assay type: cell-based
Experimental: as §2

[2] = tested on: Aspergillus fumigatus 293; assay: Synergistic assay (FIC), AF; assay type: cell-based
Experimental: as §2

C. neoformans = assay: Mouse model of cryptococcosis; assay type: in vivo, mice; settings: for mice that survived: treatment immediately after intranasal infection, 40 days
P. murina = assay: Murine model of pneumocystosis; assay type: in vivo, mice; settings: i.p. 7.2 mg/kg/day
Experimental: C3H/HeN mice ordered from the National Cancer Institute were infected with P. murina pneumonia through exposure to mice with a fulminant P. murina infection (seed mice). These mice are immune suppressed by the addition of dexamethasone at 4 mg/liter to the drinking water. Sulfuric acid at 1 ml/liter was also added to the drinking water for disinfection. The seed mice were rotated within the cages for 2 weeks and then removed. After the mice had developed a moderate infection level (approximately 5 weeks), the mice were divided into a negative-control group (control steroid), positive-control group (trimethoprim-sulfamethoxazole), and D13 group. Compound was solubilized in DMSO for a stock solution of 50 mg/ml. Compound was refrigerated before and after solubilization. Stock solution was diluted in PBS to a final concentration of 1.8 mg/ml. Mice were intraperitoneally (i.p.) injected with 100 μl of diluted stock for a total dose of approximately 180 μg/day or 7.2 mg/kg/day based on average mouse weights of 25 g. […] Slides were made from the lung homogenates at different dilutions and stained with Diff-Quik to quantify the trophic forms and cresyl echt violet to quantify the asci. Efficacy is based on the reduction of organism burden between the treatment groups and the negative-control group as determined by microscopic evaluation.

[3] = human, with NADPH
Experimental: (§3) To test for metabolic stability, 40 μl of 10 mM NADPH solution was added to each well of a 96-well plate. The final concentration of NADPH was 1 mM. The mixture was prewarmed at 37°C for 5 min. The negative-control samples were prepared by replacing NADPH solutions with 40 μl of ultrapure H2O. The negative control was used to exclude the misleading factor that resulted from the instability of the chemical itself. Samples with NADPH were prepared in duplicate. Negative controls were prepared in singlet. The reaction was started with the addition of 4 μl of 200 μM control compound or test compound solutions. […] An aliquot of 90 μl of the supernatant was mixed with 90 μl of ultrapure H2O and then used for LC-MS/MS analysis.

[4] = mouse, with NADPH
Experimental: as §3

in vitro [5] = settings: human, microsomes; for remaining at 0 h, 2 μM: % remaining at 0 min; for remaining at 0.25 h, 2 μM: % remaining at 15 min; for remaining at 0.5 h, 2 μM: % remaining at 30 min; for remaining at 0.75 h, 2 μM: % remaining at 45 min; for remaining at 1 h, 2 μM: % remaining at 60 min
Experimental: as §3

in vitro [6] = settings: monkey
Excerpt: A commercially available kit was used to examine permeability through the blood-brain barrier (BBB kit MBT-24; Pharmaco Cell Co. Ltd.). This kit allows us to perform a permeability assay using an in vitro reproduction of the blood-brain barrier using monkey brain. Briefly, in a 12-well plate there is a triple culture, with endothelial cells in the luminal part and perycites and astrocytes in the abluminal side connected by tight junctions. The luminal side of the well represents the blood side, whereas the abluminal side represents the brain side. The integrity of the blood-brain barrier is assessed by the measurement of TEER, which indicates the formation of tight junctions. To have an efficient system, the TEER should be >150 Ω cm^2. The kit is kept frozen at −80°C until it is ready to use. […] After that it takes 3 days for the cells to adjust, and then the plate can be used in 4 days for the experiment. For drug testing, after assessing the TEER, the drugs were added in the chosen medium at the desired concentrations and at different time points. At the end of each time point the TEER was measured to assess if the BBB was still intact. After that the medium was collected and subjected to MS to measure the concentration of the samples in the brain side and calculate the permeability value (Papp).

[7] = i.p. 1.2 mg/kg/day, treatment started 5 days after infection
[8] = oral 20 mg/kg/day starting the day of infection
[9] = oral 20 mg/kg/day, 32 days posttreatment, data not shown

SMILES | IC50 (J774) [µg/mL] | IC50 (A549) [µg/mL] | IC50 (HepG2) [µg/mL] | mice that survived (C. neoformans; i.p. 1.2 mg/kg/day) [%] | mice that survived until the end of the experiment (C. neoformans; [8]) [%] | half-life at 2 μM (in vitro [5]) [h] | microsomal CLint at 2 μM (in vitro [5]) [µL/min/mg] | remaining at 0 h, 2 μM (in vitro [5]; with NADPH) [%] | remaining at 0 h, 2 μM (in vitro [5]; without NADPH) [%] | remaining at 0.25 h, 2 μM (in vitro [5]; with NADPH) [%] | remaining at 0.25 h, 2 μM (in vitro [5]; without NADPH) [%] | remaining at 0.5 h, 2 μM (in vitro [5]; with NADPH) [%] | remaining at 0.5 h, 2 μM (in vitro [5]; without NADPH) [%] | remaining at 0.75 h, 2 μM (in vitro [5]; with NADPH) [%] | remaining at 0.75 h, 2 μM (in vitro [5]; without NADPH) [%] | remaining at 1 h, 2 μM (in vitro [5]; without NADPH) [%] | Papp at 5 min (in vitro [6]) [×10⁻⁶ cm/s] | Papp at 15 min (in vitro [6]) [×10⁻⁶ cm/s] | Papp at 30 min (in vitro [6]) [×10⁻⁶ cm/s] | also measured
O=C(N/N=C/c1cc(Br)cc(Br)c1O)c1ccc(Br)cc1 [D13] | 16 (≈ 33.5 µM) | > 128 | > 128 | 70 | 50 | 1.72 | 13.4 | 100 | 100 | 83.9 | 96.5 | 73 | 86.5 | 73.1 | 81.9 | 88.9 | 6.8 | 2.2 | 1.1 | MIC (Candida albicans A39): > 1 µg/mL; MIC (Candida albicans 3022; Candida albicans, 3022, CA Flu-R): > 1 µg/mL; FIC score (Candida albicans 3022; D13 combined with itraconazole, C. albicans clinical isolates resistant to fluconazole): 0.37; MIC (Candida krusei): > 1 µg/mL; MIC (Candida krusei ATCC 6258): > 1 µg/mL; MIC [1]: 0.5 µg/mL; MIC [2]: > 1 µg/mL; mice that survived until the end of the experiment (C. neoformans; [7]): 40%; CFU in brains and lungs (C. neoformans; [9]): only one D13-treated mouse showed fungal colonies and only in the lung; fungal cells in brains (C. neoformans; [9]): clear of fungal cells; number of asci or nuclei in lung homogenates (P. murina; untreated versus treated mice): No differences; survival (P. murina; versus negative control): did not show better survival; % remaining at 60 min [3]: 64.95%; % remaining at 60 min [4]: 62.25%; remaining at 1 h, 2 μM (in vitro [5]; with NADPH): ~60%
Cc1ccccc1C(=O)N/N=C/c1cc(Br)ccc1O [BHBM, (E)-N′-(3-bromo-6-hydroxybenzylidene)-2-methylbenzohydrazide] | 16 (≈ 48 µM) | 32 (≈ 96 µM) | 32 (≈ 96 µM) | 50 | 10 | 0.814 | 28.4 | 100 | 100 | 83.2 | 101 | 62.5 | 88.5 | 51.3 | 81.2 | 82.7 | 22 | 9 | 9 | day by which all mice died (C. neoformans; [7]): ≤ 30 days
